Measured values published in US10253081B2, “Glucagon analogues” (Zealand Pharma A/S, priority 2012, dated 2019).
Where two headings read alike, the source gives them in different places. *1 amine or outer side, *2 acyl side, *3 side chain or, on linkers, in order; H or OH if unused. Where a SMILES comes first, the peptide text is derived from it. Side-chain parts run from the residue outwards. [ ]: non-standard residue; d: D form. The star is where a group is joined. γGlu = O=C(O)[C@H](CCC(=O)[*:2])N[*:1]; Palmitoyl = CCCCCCCCCCCCCCCC(=O)*; Aib = CC(C)(N)C(=O)O

Tests used:
[1] = molecular target: T1, human glucagon receptor (Glucagon-R) (Homo sapiens, UniProt P47871); assay: Glucagon receptor efficacy assay (cAMP AlphaScreen, CHO cells); format: cell-based; settings: Table 1A; CHO cells expressing human Glucagon-R, cAMP; read-out: EC50 hGCGR CHO-K1
T1 construct: expressed in transfected cells
Summary of the method: (§1)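 Stably transfected CHO clones expressing human GLP-1R or glucagon receptor were treated with increasing peptide concentrations for 15 min at room temperature in KRBH containing 0.1 mM IBMX. After lysis, cAMP was quantified by AlphaScreen; EC50 and efficacy relative to GLP-1 or glucagon reference came from curve fitting.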

[2] = Pharmacokinetic parameters after subcutaneous and intravenous administration to mice; format: in vivo; settings: male, mouse, plasma, 20 nmol/kg, C57Bl/6J mice; for half-life: read-out: Terminal half life (converted); for MRT: read-out: Mean Residence Time
Method: Pharmacokinetic parameters of the test compounds were determined after subcutaneous and intravenous administration to C57Bl/6J mice.
8 week old male C57Bl/6J mice were obtained from Taconic (Denmark) weighing approximately 20-25 g at time of arrival at the test facility. The mice were caged in European standard cages type III with light cycle of 12-hour dark and 12-hour light (lights on 06.00). Both diet, Altromin 1324 (Altromin, Germany), and water was administered ad libitum during the whole experimental period. The 8-11 week animals were imported to the laboratory at least 7 days before the start up of the experimental procedure in order to assure proper acclimatization. After sampling the mice were euthanized by cervical dislocation.
The compounds were first dissolved in 0.096% aqueous ammonia to a nominal concentration of 2 mg/ml, and then diluted to the desired dosing strength (4 μM) in sterile PBS containing 25 mM phosphate buffer, pH 7.4. Subcutaneous and intravenous injections corresponding to 20 nmol/kg were given. The GLP-1-glucagon dual agonists were administered for subcutaneous dosing in the neck region and via a lateral tail vein for intravenous dosing.
Blood samples (250 μl) were collected from the periorbital plexus at time points 0.5, 2, 4, 6, 12, 16, 20, 24 h for subcutaneous and 10, 30 min, 3, 6, 12, 18, 24 h for intravenous administration into ice-chilled K3EDTA tubes and centrifuged for 5 minutes at 4° C. within 20 minutes of sampling. Plasma (>100 μl) was separated to ice-chilled Micronic tubes, immediately frozen, and kept at −70° C. until analysed for plasma concentration for the respective GLP-1-glucagon compound using LC-MS/MS. Individual plasma concentration-time profiles were analysed by a non-compartmental approach in WinNonLin v6.3 (Pharsight inc, Mountain View, Calif., USA), and the resulting pharmacokinetic parameters determined.

[3] = molecular target: T2, human glucagon-like peptide 1 receptor (GLP-1R) (Homo sapiens, UniProt P43220); assay: GLP-1 receptor efficacy assay (cAMP AlphaScreen, CHO cells); format: cell-based; settings: Table 1A; for EC50: CHO cells expressing human GLP-1-R, cAMP, read-out: EC50 hGLP-1R CHO-K1; for Ratio GLP-1/Glucagon: EC50 [GLP-1R]/EC50 [Glucagon-R]
T2 construct: expressed in transfected cells
Summary of the method: as §1

T1 sequence (P47871 26-477): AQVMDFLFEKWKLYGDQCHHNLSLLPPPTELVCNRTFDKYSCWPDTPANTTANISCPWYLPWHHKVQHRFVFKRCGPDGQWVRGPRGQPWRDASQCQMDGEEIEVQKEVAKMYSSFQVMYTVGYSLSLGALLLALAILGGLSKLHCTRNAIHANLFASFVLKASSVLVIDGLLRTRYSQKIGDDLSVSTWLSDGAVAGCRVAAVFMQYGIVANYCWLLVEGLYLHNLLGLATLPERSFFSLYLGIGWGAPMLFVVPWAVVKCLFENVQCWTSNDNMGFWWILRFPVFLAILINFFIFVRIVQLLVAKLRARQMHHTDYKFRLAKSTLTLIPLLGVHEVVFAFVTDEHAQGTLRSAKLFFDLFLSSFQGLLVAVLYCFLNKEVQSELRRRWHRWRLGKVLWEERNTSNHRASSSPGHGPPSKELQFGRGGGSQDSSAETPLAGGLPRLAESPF
T2 sequence (P43220 24-463): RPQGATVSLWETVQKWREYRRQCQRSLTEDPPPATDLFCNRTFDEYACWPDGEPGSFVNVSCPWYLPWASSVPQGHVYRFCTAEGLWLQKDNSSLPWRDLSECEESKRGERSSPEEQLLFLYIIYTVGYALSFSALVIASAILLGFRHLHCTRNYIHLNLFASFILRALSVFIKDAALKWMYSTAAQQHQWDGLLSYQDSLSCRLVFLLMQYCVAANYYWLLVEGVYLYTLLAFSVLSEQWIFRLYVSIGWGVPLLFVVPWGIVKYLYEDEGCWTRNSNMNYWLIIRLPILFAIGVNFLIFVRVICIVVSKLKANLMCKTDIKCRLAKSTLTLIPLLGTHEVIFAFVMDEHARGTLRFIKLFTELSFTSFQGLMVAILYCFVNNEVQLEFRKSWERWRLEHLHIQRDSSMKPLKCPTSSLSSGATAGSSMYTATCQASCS

| EC50 [1] [nM] | clearance ([2]; IV) [mL/min/kg] | half-life ([2]; IV) [h] | Tmax ([2]; SC) [h] | bioavailability ([2]; SC) [%] | MRT ([2]; SC) [h] | half-life ([2]; SC) [h] | EC50 [3] [nM] | Ratio GLP-1/Glucagon [3] | Compound |
| --- | --- | --- | --- | --- | --- | --- | --- | --- | --- |
| 0.29 | 0.128 | 3.9 | 4 | 42 | 8.1 | 4.1 | 0.41 | 1.41 | CCCCCCCCCCCCCCCC(=O)N[C@@H](CCC(=O)NCCCC[C@H](NC(=O)[C@H](CO)NC(=O)[C@H](CC(=O)O)NC(=O)[C@H](CC(C)C)NC(=O)[C@H](Cc1ccc(O)cc1)NC(=O)[C@H](CCCCN)NC(=O)[C@H](CO)NC(=O)[C@H](Cc1ccc(O)cc1)NC(=O)[C@H](CC(=O)O)NC(=O)[C@H](CO)NC(=O)[C@@H](NC(=O)[C@H](Cc1ccccc1)NC(=O)[C@@H](NC(=O)CNC(=O)[C@H](CCC(N)=O)NC(=O)[C@H](CO)NC(=O)[C@@H](N)Cc1c[nH]cn1)[C@@H](C)O)[C@@H](C)O)C(=O)N[C@@H](C)C(=O)N[C@@H](C)C(=O)N[C@@H](Cc1c[nH]cn1)C(=O)N[C@@H](CC(=O)O)C(=O)N[C@@H](Cc1ccccc1)C(=O)N[C@H](C(=O)N[C@@H](CCC(=O)O)C(=O)N[C@@H](Cc1c[nH]c2ccccc12)C(=O)N[C@@H](CC(C)C)C(=O)N[C@@H](CC(C)C)C(=O)N[C@@H](CO)C(N)=O)C(C)C)C(=O)O [Compound 8, H-HSQGTFTSDYSKYLDS-K(Hexadecanoyl-isoGlu)-AAHDFVEWLLS-NH2] (H-HSQGTFTSDYSKYLDSK([γGlu-Palmitoyl])AAHDFVEWLLS-NH2) |
| 1.56 | 0.185 | 7.4 | 4 | 53 | 12.5 | 6.4 | 0.38 | 0.24 | CCCCCCCCCCCCCCCC(=O)N[C@@H](CCC(=O)NCCCC[C@H](NC(=O)[C@H](CCC(=O)O)NC(=O)[C@H](CC(=O)O)NC(=O)[C@H](CC(C)C)NC(=O)[C@H](Cc1ccc(O)cc1)NC(=O)[C@H](CCCCN)NC(=O)[C@H](CO)NC(=O)[C@H](Cc1ccc(O)cc1)NC(=O)[C@H](CC(=O)O)NC(=O)[C@H](CO)NC(=O)[C@@H](NC(=O)[C@H](Cc1ccccc1)NC(=O)[C@@H](NC(=O)CNC(=O)[C@H](CCC(N)=O)NC(=O)C(C)(C)NC(=O)[C@@H](N)Cc1c[nH]cn1)[C@@H](C)O)[C@@H](C)O)C(=O)N[C@@H](C)C(=O)N[C@@H](C)C(=O)N[C@@H](CCCCN)C(=O)N[C@@H](CC(=O)O)C(=O)N[C@@H](Cc1ccccc1)C(=O)N[C@H](C(=O)N[C@@H](CCC(=O)O)C(=O)N[C@@H](Cc1c[nH]c2ccccc12)C(=O)N[C@@H](CC(C)C)C(=O)N[C@@H](CC(C)C)C(=O)N[C@@H](CO)C(=O)N[C@@H](C)C(N)=O)[C@@H](C)CC)C(=O)O [Compound 4, H-H-Aib-QGTFTSDYSKYLDE-K(Hexadecanoyl-isoGlu)-AAKDFIEWLLSA-NH2] (H-H[Aib]QGTFTSDYSKYLDEK([γGlu-Palmitoyl])AAKDFIEWLLSA-NH2) |
| 0.61 | 0.128 | 6 | 6 | 97 | 17.4 | 10.5 | 0.19 | 0.31 | CCCCCCCCCCCCCCCC(=O)N[C@@H](CCC(=O)NCCCC[C@H](NC(=O)[C@H](CCC(=O)O)NC(=O)[C@H](CC(=O)O)NC(=O)[C@H](CC(C)C)NC(=O)[C@H](Cc1ccc(O)cc1)NC(=O)[C@H](CCCCN)NC(=O)[C@H](CO)NC(=O)[C@H](Cc1ccc(O)cc1)NC(=O)[C@H](CC(=O)O)NC(=O)[C@H](CO)NC(=O)[C@@H](NC(=O)[C@H](Cc1ccccc1)NC(=O)[C@@H](NC(=O)CNC(=O)[C@H](CCC(N)=O)NC(=O)C(C)(C)NC(=O)[C@@H](N)Cc1c[nH]cn1)[C@@H](C)O)[C@@H](C)O)C(=O)N[C@@H](C)C(=O)N[C@@H](C)C(=O)N[C@@H](CCCCN)C(=O)N[C@@H](CC(=O)O)C(=O)N[C@@H](Cc1ccccc1)C(=O)N[C@H](C(=O)N[C@@H](CCC(=O)O)C(=O)N[C@@H](Cc1c[nH]c2ccccc12)C(=O)N[C@@H](CC(C)C)C(=O)N[C@@H](CCC(=O)O)C(=O)N[C@@H](CO)C(=O)N[C@@H](C)C(N)=O)[C@@H](C)CC)C(=O)O [Compound 15, H-H-Aib-QGTFTSDYSKYLDE-K(Hexadecanoyl-isoGlu)-AAKDFIEWLESA-NH2] |
| 0.46 | 0.185 | 4 | 4 | 81 | 7.6 | 3.8 | 0.16 | 0.35 | CCCCCCCCCCCCCCCC(=O)N[C@@H](CCC(=O)NCCCC[C@H](NC(=O)[C@H](CO)NC(=O)[C@H](CC(=O)O)NC(=O)[C@H](CC(C)C)NC(=O)[C@H](Cc1ccc(O)cc1)NC(=O)[C@H](CCCCN)NC(=O)[C@H](CO)NC(=O)[C@H](Cc1ccc(O)cc1)NC(=O)[C@H](CC(=O)O)NC(=O)[C@H](CO)NC(=O)[C@@H](NC(=O)[C@H](Cc1ccccc1)NC(=O)[C@@H](NC(=O)CNC(=O)[C@H](CCC(N)=O)NC(=O)C(C)(C)NC(=O)[C@@H](N)Cc1c[nH]cn1)[C@@H](C)O)[C@@H](C)O)C(=O)N[C@@H](C)C(=O)N[C@@H](C)C(=O)N[C@@H](Cc1c[nH]cn1)C(=O)N[C@@H](CC(=O)O)C(=O)N[C@@H](Cc1ccccc1)C(=O)N[C@H](C(=O)N[C@@H](CCC(=O)O)C(=O)N[C@@H](Cc1c[nH]c2ccccc12)C(=O)N[C@@H](CC(C)C)C(=O)N[C@@H](CCC(=O)O)C(=O)N[C@@H](CO)C(=O)N[C@@H](C)C(N)=O)C(C)C)C(=O)O [Compound 5, H-H-Aib-QGTFTSDYSKYLDS-K(Hexadecanoyl-isoGlu)-AAHDFVEWLESA-NH2] (H-H[Aib]QGTFTSDYSKYLDSK([γGlu-Palmitoyl])AAHDFVEWLESA-NH2) |
| 0.9 | 0.17 | 5.2 | 4 | 52 | 12.6 | 6.2 | 0.54 | 0.60 | CCCCCCCCCCCCCCCC(=O)N[C@@H](CCC(=O)NCCCC[C@H](NC(=O)[C@H](CO)NC(=O)[C@H](CC(=O)O)NC(=O)[C@H](CC(C)C)NC(=O)[C@H](Cc1ccc(O)cc1)NC(=O)[C@H](CCCCN)NC(=O)[C@H](CO)NC(=O)[C@H](Cc1ccc(O)cc1)NC(=O)[C@H](CC(=O)O)NC(=O)[C@H](CO)NC(=O)[C@@H](NC(=O)[C@H](Cc1ccccc1)NC(=O)[C@@H](NC(=O)CNC(=O)[C@H](CCC(N)=O)NC(=O)C(C)(C)NC(=O)[C@@H](N)Cc1c[nH]cn1)[C@@H](C)O)[C@@H](C)O)C(=O)N[C@@H](C)C(=O)N[C@@H](C)C(=O)N[C@@H](Cc1c[nH]cn1)C(=O)N[C@@H](CC(=O)O)C(=O)N[C@@H](Cc1ccccc1)C(=O)N[C@H](C(=O)N[C@@H](CCC(=O)O)C(=O)N[C@@H](Cc1c[nH]c2ccccc12)C(=O)N[C@@H](CC(C)C)C(=O)N[C@@H](CC(C)C)C(=O)N[C@@H](CO)C(=O)O)C(C)C)C(=O)O [Compound 1, H-H-Aib-QGTFTSDYSKYLDS-K(Hexadecanoyl-isoGlu)-AAHDFVEWLLS-OH] (H-H[Aib]QGTFTSDYSKYLDSK([γGlu-Palmitoyl])AAHDFVEWLLS-OH) |
| 0.46 | 0.157 | 3.7 | 4 | 47 | 10.6 | 4.3 | 0.35 | 0.76 | CCCCCCCCCCCCCCCC(=O)N[C@@H](CCC(=O)NCCCC[C@H](NC(=O)[C@H](CO)NC(=O)[C@H](CC(=O)O)NC(=O)[C@H](CC(C)C)NC(=O)[C@H](Cc1ccc(O)cc1)NC(=O)[C@H](CCCNC(=N)N)NC(=O)[C@H](CO)NC(=O)[C@H](Cc1ccc(O)cc1)NC(=O)[C@H](CC(=O)O)NC(=O)[C@H](CO)NC(=O)[C@@H](NC(=O)[C@H](Cc1ccccc1)NC(=O)[C@@H](NC(=O)CNC(=O)[C@H](CCC(N)=O)NC(=O)[C@H](CO)NC(=O)[C@@H](N)Cc1c[nH]cn1)[C@@H](C)O)[C@@H](C)O)C(=O)N[C@@H](C)C(=O)N[C@@H](C)C(=O)N[C@@H](CCC(=O)O)C(=O)N[C@@H](CC(=O)O)C(=O)N[C@@H](Cc1ccccc1)C(=O)N[C@H](C(=O)N[C@@H](CCC(=O)O)C(=O)N[C@@H](Cc1c[nH]c2ccccc12)C(=O)N[C@@H](CC(C)C)C(=O)N[C@@H](CC(C)C)C(=O)N[C@@H](CCCNC(=N)N)C(=O)N[C@@H](C)C(N)=O)C(C)C)C(=O)O [Compound 6, H-HSQGTFTSDYSRYLDS-K(Hexadecanoyl-isoGlu)-AAEDFVEWLLRA-NH2] (H-HSQGTFTSDYSRYLDSK([γGlu-Palmitoyl])AAEDFVEWLLRA-NH2) |
